Laboratory results taken from patent publication US20230226228A1, “POSITRON IMAGING TOMOGRAPHY IMAGING AGENT COMPOSITION AND METHOD FOR DETECTION OF BACTERIAL INFECTION” (priority 2020, published 2023).

How the values were obtained:
S. aureus Xen29 [1] = experiment: Rescue of sulfamethoxazole antibacterial effect (MIC, microbroth dilution in M9 media); type: cell-based
Protocol: FIG. 13. Impact of PABA analogues on the antibacterial activity of sulfamethoxazole (SMX).
Antibacterial susceptibility tests for aerobically growing bacteria were performed with a modified microbroth dilution assay according to the Clinical and Laboratory Standard Institute in transparent 96-well plates (CLSI. 2006). S. aureus Xen29 (PerkinElmer) were utilized in this study. Briefly, bacteria were grown to mid log phase (OD600 of 0.6-0.7) in cation-adjusted Mueller-Hinton (CAMH) media at 37° C. in an orbital shaker. Subsequently, bacteria were resuspended in the M9 media. A final concentration of 10^6 CFU/mL per well was added to M9 media (1% glucose, 1% casamino acids, 1 mM thiamine, 0.05 mM nicotinamide, 2 mM MgCl2, 0.1 mM CaCl2) containing 2-fold dilutions of SMX to give final concentrations ranging from 0.05 to 100 μg/mL either alone or in the presence of PABA (0.8 μg/mL and 4 μg/mL), F-PABA (0.8 μg/mL and 4 μg/mL), F-NB (10 μg/mL, 20 μg/mL and 40 μg/mL), or F-NAP (10 μg/mL, 20 μg/mL and 40 μg/mL). The plate was examined for bacteria growth using a UV-vis plate reader after 24 h incubation at 37° C. The MIC was recorded as the lowest SMX concentration (μM) required to inhibit at least 90% of bacterial growth as judged by the absorbance of the culture media.

bacterial cells = experiment: MIC / toxicity of F-PABA; type: cell-based
S. aureus NfsB = type: biochemical; conditions: NADH 40 μM, substrate varied, Michaelis-Menten fit
Protocol: F-ENB, F-NB and F-NAP by NfsB was performed in 50 mM Tris-HCl buffer (pH 7.4) containing 5 mM EDTA, and 40 μM NADH in a total reaction volume of 500 μL. The reaction was initiated by adding enzyme (22 nM) and the consumption of NADH was monitored at 340 nm. […] Initial velocities as a function of substrate concentration were fitted to the Michaelis-Menten equation using GraphPad Prism 4. Each experiment was performed in triplicate and all the data points were included when the data were fit by the Michaelis-Menten equation.
The nitroreductase assay was performed at room temperature in 50 mM Tris-HCl buffer, pH 7.4, containing 5 mM EDTA in a total reaction volume of 500 μL. Reactions were initiated by the addition of NfsB to a final concentration of 45 nM, and the consumption of NADH was continuously monitored at 340 nm. […] The experiments were performed in triplicate and the initial velocities as a function of substrate concentration were globally fit to the Michaelis-Menten equation using GraphPad Prism 4.

S. aureus Xen29 [2] = experiment: PET/CT imaging of rat triceps infection / sterile inflammation model (S. aureus Xen29); type: in vivo, Sprague-Dawley rats
Protocol: FIG. 5. PET/CT imaging of rats infected in the right triceps with the bioluminescent Xen29 strain of S. aureus. (A) Experimental design. (B) 2-[^18F]F-ENB-derived radioactivity accumulates in the infected triceps (red arrow) but not the inflamed triceps (yellow arrow) at 3 h post tracer administration.
FIG. 8. PET/CT imaging of 2-[^18F]F-NB in a rat model of S. aureus Xen29 infection. (A) Radiosynthesis of 2-[^18F]F-NB. (i) [^18F]potassium fluoride, Kryptofix222, potassium carbonate, dimethyl sulfoxide, r.t., 10 min; (ii) 2 M potassium hydroxide in H2O, 105° C., 10 min; Overall decay-corrected radiochemical yield: 26% (n=1).
FIG. 10. Time activity curve (TAC) in infected triceps, inflamed triceps and blood and biodistribution of 2-[^18F]F-NB in major organs. (a) The right triceps of the rats were infected with S. aureus Xen 29 and the left triceps were injected with a 10-fold higher burden of heat-killed S. aureus to induce sterile inflammation. The rats were scanned by PET/CT for 120 min (rats with sterile inflammation in the left triceps) immediately starting from tracer administration. The PET scan was separated into ten frames (1-min) and twenty-two frames (5-min). TACs of infected triceps (blue), inflamed triceps (grey) and blood (left heart ventricle, red) are shown. Data represented as mean with standard error of the mean (n=4). (b) Time-dependent accumulation of 2-[^18F]F-NB in infected and inflamed triceps compared to the blood (left heart ventricle). Data are presented as the mean and standard error of the mean (n=4). […]
(§1) S. aureus (Newman or Xen29) was cultured overnight by inoculating 5 μL of bacteria from a glycerol stock into 10 mL of fresh cation-adjusted Mueller-Hinton (CAMH) broth or tryptic soy broth (TSB). […] After imaging, the infected triceps were collected, homogenized in PBS using a hand-held homogenizer, and the bacterial burden at the time of imaging was determined by plating the muscle tissues onto solid MH medium. After overnight incubation at 37° C., CFUs were quantified by enumeration. […]

S. aureus Newman [3] = experiment: In vitro cellular uptake of radiotracer; type: cell-based; conditions: 1 μCi/mL, 120 min incubation, versus heat killed bacteria
Protocol: (§2) FIG. 12. In vitro 2-[^18F]F-NB uptake by S. aureus Newman and Xen29. 1 μCi of 2-[^18F]F-NB was incubated in a 1 mL culture of S. aureus Newman (green bars) or S. aureus Xen29 (blue bars) for 5, 30, 60, 90 and 120 min.
(§3) S. aureus Newman and S. aureus Xen29 were aerobically grown to OD600 0.6 in LB media at 37° C. To evaluate the uptake of 2-[^18F]F-NB, the bacteria were incubated with 1 μCi/mL of the radiotracer at 37° C. with rapid agitation. Heat-killed (90° C. for 30 min) bacteria were similarly incubated with 2-[^18F]FNB. Aliquots (1 mL) were removed after 5, 30, 60, 90, and 120 min and pelleted by centrifugation (11 000 rpm, 3 min) and washed three times with cold phosphate buffered saline (PBS). Total radioactivity was measured using an automated gamma counter and is reported as the percentage of radioactivity added to the culture. A minimum of five replicates were used for each assay and time point.

S. aureus Xen29 [4] = experiment: In vitro cellular uptake of radiotracer; type: cell-based; conditions: 1 μCi/mL, 120 min incubation, versus heat killed bacteria
Protocol: as §2, §3

DHPS = DHPS (Staphylococcus aureus, UniProt O05701); experiment: HPPK-DHPS-DHFR coupled assay; type: biochemical; conditions: concentration of 80 μM
S. aureus Newman [5] = experiment: PET/CT imaging of rat triceps infection / sterile inflammation model (S. aureus Newman); type: in vivo, Sprague-Dawley rats; conditions: 60-80 min after tracer injection
Protocol: FIG. 3. PET/CT imaging of a rat model of S. aureus Newman-induced triceps infection. (A) [^18F]FDG PET/CT of a rat in which 8.2±0.2 log10 CFU of S. aureus Newman has been injected into the right triceps (red arrow) and with sterile inflammation in the left triceps (yellow arrow). The image was acquired 60-80 min after tracer injection. (B) Comparison of [18F]FDG accumulation 60-80 min postinjection at sites of infection and sterile inflammation, represented as % injected dose per cc (% ID/cc). […] (D) Comparison of 2-[^18F]F-ENB accumulation in the infected triceps and inflamed triceps 180-200 min after tracer injection: ***P<0.001 from a two-tailed Mann-Whitney U Test (n=7). (E) Ex vivo PET imaging of the excised infected triceps. The area of infection is highlighted in yellow. […]
as §1

Sequence of DHPS (O05701 whole entry): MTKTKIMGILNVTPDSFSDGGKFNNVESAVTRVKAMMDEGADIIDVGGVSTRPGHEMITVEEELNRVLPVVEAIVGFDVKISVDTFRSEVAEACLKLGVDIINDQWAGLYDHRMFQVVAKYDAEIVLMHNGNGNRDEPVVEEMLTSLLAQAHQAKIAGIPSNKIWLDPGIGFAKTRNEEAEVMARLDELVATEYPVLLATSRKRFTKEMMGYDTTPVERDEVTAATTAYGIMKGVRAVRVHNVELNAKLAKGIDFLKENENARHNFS

SMILES: Nc1ccc(C(=O)O)c(F)c1 [F-PABA, 2-fluoro-4-aminobenzoic acid]
- rescue of growth in the presence of sulfamethoxazole (S. aureus Xen29 [1]): rescued bacterial growth in a concentration-dependent manner
- MIC of sulfamethoxazole in the presence of 0.8 μg/mL F-PABA (S. aureus Xen29 [1]; 0.8 μg/mL F-PABA): 12.5 µg/mL
- increase of sulfamethoxazole MIC by 0.8 μg/mL F-PABA (S. aureus Xen29 [1]; 0.8 μg/mL F-PABA): 8 fold
- MIC of sulfamethoxazole in the presence of 4 μg/mL F-PABA (S. aureus Xen29 [1]; 4 μg/mL F-PABA): over 100 μg/mL
- MIC (bacterial cells): > 100 µg/mL
- toxicity to bacterial or mammalian cells (bacterial cells): not toxic to either bacterial or mammalian cells

SMILES: O=C(O)c1ccc([N+](=O)[O-])cc1F [2-F-NB, 2-fluoro-p-nitrobenzoate]
- kcat (S. aureus NfsB): 12.4 ± 1.6 s⁻¹
- rescue of growth in the presence of sulfamethoxazole (S. aureus Xen29 [1]): antagonized the activity of sulfamethoxazole
- MIC of sulfamethoxazole in the presence of 40 μg/mL 2-F-NB (S. aureus Xen29 [1]; 40 μg/mL 2-F-NB): 12.5 µg/mL

SMILES: CCOC(=O)c1ccc([N+](=O)[O-])cc1F [2-F-ENB, Ethyl 2-fluoro-4-nitrobenzoate]
- kcat (S. aureus NfsB): 16.1 ± 1.7 s⁻¹

SMILES: CC(=O)c1ccc([N+](=O)[O-])cc1F [2-F-NAP, 2-fluoro-4-nitroacetophenone]
- rescue of growth in the presence of sulfamethoxazole (S. aureus Xen29 [1]): unable to rescue growth

SMILES: O=C(O)c1ccc([N+](=O)[O-])cc1[18F] [2-[^18F]F-NB, 2-[^18F]F-4-nitrobenzoate]
- signal at the infection site versus site of sterile inflammation (S. aureus Xen29 [2]; 3 h post injection, ROI analysis): 17 fold
- localisation of radioactive signal (S. aureus Xen29 [2]; 180 min post tracer injection): localized at the site of infection
- uptake of radiotracer by live bacteria (S. aureus Newman [3]): Time dependent uptake
- uptake of radiotracer by live bacteria (S. aureus Xen29 [4]): Time dependent uptake

SMILES: CC(=O)c1ccc(N)cc1F [2-fluoro-4-aminoacetophenone, 2-Fluoro-4-aminoacetophenone]
- substrate for DHPS (DHPS): not an efficient substrate for DHPS

SMILES: O=C[C@H]([18F])[C@@H](O)[C@H](O)[C@H](O)CO [[^18F]FDG, 2-Deoxy-2-[18F]fluoro-D-glucose]
- radioactivity in the infected triceps (S. aureus Newman [5]): 0.8 % ID/cc
- radioactivity in the inflamed triceps (S. aureus Newman [5]; sterile inflammation): 1.2 % ID/cc

SMILES: Nc1ccc(C(=O)O)cc1 [PABA, p-aminobenzoic acid]
- rescue of growth in the presence of sulfamethoxazole (S. aureus Xen29 [1]): bacterial regrowth in the presence of sulfamethoxazole occurred

SMILES: Cc1cc(NS(=O)(=O)c2ccc(N)cc2)no1 [sulfamethoxazole]
- MIC (S. aureus Xen29 [1]; Staphylococcus aureus, XEN29, 24 h, M9 media, read-out: MIC of sulfamethoxazole alone): 1.56 µg/mL
